Measurements: patent US9872912B2, “Method for treating pancreatic cancer” (CHINA MEDICAL UNIVERSITY, priority 2014, dated 2018)
“And” between values parts separate entries of the source, which are not always exact repeats. Equal entries are not always repeated.

How the values were obtained:
PANC-1 = experiment: MTT cell survival rate, PANC-1; type: cell-based; settings: Homo sapiens, PANC-1, 24 hours, read-out: IC50 (concentration of 50% inhibition)
Protocol: (§1) MTT (3-[4,5-dimethylthiahiazo-2-yl]-2,4-dipheny-tetrazolium bromide) was used to determine if the cell survival rate of different pancreatic cancer cell lines will be influenced when being treated with (Z)-butylidenephthalide. Human pancreatic cancer cell lines (3×10^3 cells/well), PANC-1 and PACA-2, were cultured in a 96-well micro-culture plate over night. Different concentrations of (Z)-butylidenephthalide (0 μg/ml, 10 μg/ml, 25 μg/ml, 50 μg/ml, 75 μg/ml, or 100 μg/ml) or (E)-butylidenephthalide (0 μg/ml, 50 μg/ml, 100 μg/ml, 200 μg/ml, 400 μg/ml, or 800 μg/ml), or 50 μM gemcitabine (a traditional medicine for treating pancreatic cancer, as a control group) were added into each well of the 96-well micro-culture plate along the inner wall, and cultured for 24 hours. The medium was removed, and then a medium containing 500 μg/ml MTT (200 μl) was added and cultured for 4 hours. The medium was removed, and then 200 μl of DMSO was added into the plate. The absorbance of the sample in each well was measured by a spectrophotometer at 570 nm wavelength. The data was calculated to determine the survival rate and IC50 (concentration of 50% inhibition) of each pancreatic cancer cell line treated with (Z)-butylidenephthalide and (E)-butylidenephthalide. The results are shown in FIG. 1A ((E)-butylidenephthalide) and FIG. 1B ((Z)-butylidenephthalide).

PACA-2 [1] = experiment: MTT cell survival rate, PACA-2; type: cell-based; settings: Homo sapiens, PACA-2, 24 hours, read-out: IC50 (concentration of 50% inhibition)
Protocol: as §1

[2] = tested on: Nur77 gene pathway-related and apoptosis-related proteins in PACA-2; experiment: Western blotting of Nur77 pathway-related and apoptosis-related proteins in PACA-2; type: cell-based, Human
Protocol: Human pancreatic cancer cell line, PACA-2, […], and then the expression levels of the Nur77 gene involved pathway-related proteins were analyzed by Western blotting, including Pan-PKC, AKT, ERK, and JNK (FIG. 8A). In addition, the expression levels of apoptosis-related proteins were also analyzed, including poly(ADP-ribose) polymerase (PARP), cleaved poly(ADP-ribose) polymerase (cPARP), caspase-3 (FIG. 8B). β-actin was used as the control group.

PACA-2 [3] = experiment: Micro RNA interference test, cellular survival rate of PACA-2; type: cell-based, human; settings: PACA-2, 133 μM Z-BP
Protocol: Human pancreatic cancer cell lines, PACA-2, was cultured with p(CPP-SA)-Z-BP comprising 0 w % (as a control group), 17.5 w %, or 25 w % (Z)-butylidenephthalide, respectively, for 24 hours, and then the tumor cell morphology and cellular survival rate were observed.
In addition, the human pancreatic cancer cell line, PACA-2, was treated with 10 nM or 50 nM of Nurr1 micro RNA, and then treated with 133 μM Z-BP. Then, the cellular survival rate was observed using the same method as described in Example 4.

[4] = tested on: gene expression levels of NOR-1, Nurr1, and Nur77 in PANC-1; experiment: RT-PCR of apoptosis-related gene expression, PANC-1; type: cell-based, Human
Protocol: (§2) In this experiment, pancreatic cancer cell lines, PANC-1 and PACA-2, were treated with 100 μg/ml Z-BP for 0, 1, 3, 6, or 24 hours, and then, analyzed by reverse transcriptase-polymerase chain reaction (RT-PCR) (FIG. 6A) to analyze the effects of Z-BP on the gene expression levels of NOR-1, Nurr1, and Nur77 in the pancreatic cancer cell line. In addition, pancreatic cancer cell lines, PANC-1 and PACA-2, were treated with different concentrations of Z-BP for 3 hours, and then, analyzed by RT-PCR (FIG. 6B). The Glyceraldehyde 3-phosphate dehydrogenase (GAPDH) was used as the control group.

[5] = tested on: gene expression levels of NOR-1, Nurr1, and Nur77 in PACA-2; experiment: RT-PCR of apoptosis-related gene expression, PACA-2; type: cell-based, Human
Protocol: as §2

Nurr1 RNA in PACA-2 = experiment: Micro RNA interference test, RT-PCR of Nurr1 RNA in PACA-2; type: cell-based, human; settings: PACA-2, 133 μM Z-BP
Protocol: The RNA expression of Nurr1 in the human pancreatic cancer cell line, PACA-2, was inhibited by Micro RNA interference technology. The cells were treated with 133 μM Z-BP. Then, the cells were analyzed by RT-PCR to detect the changes in the expression of Nurr1 RNA in the cells. As the results shown in FIG. 7A, when PACA-2 cells were treated with 50 nM Nurr1 micro RNA, about 50% of the Nurr1 induced by Z-BP was inhibited.

[6] = PACA-2, Z-BP for 24 hours or 48 hours
[7] = PANC-1, 100 μg/ml Z-BP, 1 to 3 hours
[8] = PACA-2, 100 μg/ml Z-BP, 1 to 3 hours

Row | SMILES | IC50 (PANC-1) | IC50 (PACA-2 [1]) | expression level of phospho-AKT (Pi-AKT) ([2]; PACA-2, Z-BP for 180 minutes) | expression level of phospho-JNK (Pi-SAPK/JNK) ([2]; PACA-2, Z-BP for 180 minutes) | expression level of PARP [2, 6] | expression level of cPARP [2, 6] | expression level of caspase-3 [2, 6] | cellular survival rate of PACA-2 cells (PACA-2 [3]) | mRNA expression level of NOR-1 [4, 7] | mRNA expression level of Nurr1 [4, 7] | mRNA expression level of Nurr1 ([4]; PANC-1, different concentrations of Z-BP, 3 hours) | mRNA expression level of NOR-1 [5, 8] | mRNA expression level of Nurr1 [5, 8] | mRNA expression level of Nurr1 ([5]; PACA-2, different concentrations of Z-BP, 3 hours) | expression of Nurr1 (Nurr1 RNA in PACA-2)
1 | CCC/C=C1/OC(=O)c2ccccc21 [(E)-butylidenephthalide, reference compound] | ~257 µg/mL and ~1.37 mM | ~162 µg/mL and ~864 µM | – | – | – | – | – | – | – | – | – | – | – | – | –
2 | CCC/C=C1\OC(=O)c2ccccc21 [(Z)-butylidenephthalide] | ~45 µg/mL and ~234 µM | ~25 µg/mL and ~133 µM | increased | increased | increased | increased | increased | reduce the cellular survival rate | increased | increased | increased | increased | increased | increased | increase the expression of Nurr1
